“And” between values parts separate entries of the source, which are not always exact repeats. Identical values can stand only once. Where a SMILES comes first, the peptide text is derived from it. [ ]: non-standard residue; d: D form. pGlu = O=C1CC[C@@H](C(=O)O)N1
What was measured:
female lambs = experiment: Inducing super-ovulation in infant sheep; format: in vivo; conditions: 10 μg twice daily 5 days i.m., 70 μg on 6th day; 50-day old lambs
Description: 10 50-day old female lambs were administered each intramuscularly twice daily for 5 days 10 μg doses each of D-Phe^6, Gln^8, desGly^10 -GnRH ethylamide. […] Evaluation of treated and untreated control animals was carried out with the aid of laparoscopy. The results were similar to those outlined in Examples 1 to 4.

infant calves = experiment: Inducing super-ovulation in infant cattle; format: in vivo
Description: 8 65-old day infant calves were treated for 8 days, three times daily, with 2 μg of D-Phe^6, Gln^8, desGly^10 -GnRH ethylamide each. After a day of rest, on the 10th day 100 μg active ingredient was administered each intramuscularly. Following the last injection, ovaries from both sides were removed; generally 5-11 developed Graf-follicles were registered in each ovary. 50% of the follicles were already past the stage when tight to the touch, i.e. they were follicles just prior to ovulation.

[1] = tested on: subordinate male chimpanzees; experiment: Treating physiological oligospermia of chimpanzee; format: in vivo
Description: In our case, apart from sperm obtained from the dominant males, that was stored in sperm bank, we had to have expressly, for the purpose of insemination, sperm from the 4 subordinate males (all sexually mature). Before the treatment began, all animals were ejaculated under narcosis through electric shock method. Density and motility of the ejaculate was evaluated under microscope, then it was put under deep freeze probe (-196° C.). […] Thereafter male chimpanzees weighing 60 to 90 kilograms were administered intramuscularly 100 μg of D-Phe^6, Gln^8, desGly^10 -GnRH ethylamide diluted in 1 ml of normal saline solution using compressed air injection technique. […] Qualitative and quantitative characteristics of the ejaculates were similar to those obtained from the dominant male and to values published in technical literature.
After diluting the ejaculate in a 1:1 ratio, deep-freeze test was positive and the 60% motility decreased to only 45%. Sperms of this quality either fresh or in deep freeze are entirely suitable for the purposes of insemination.

Bengalian tiger = experiment: Stimulating normospermia to hyperspermia in Bengalian tiger; format: in vivo
Description: A 8-year old Bengalian tiger of a weight of 200 kg belonging to Zoo copulated regularly, its mate becoming pregnant regularly for years. With this knowledge, under narcosis and in the mating season sperm sample was taken electrically and it was established that the sample density reached 3, motility was 30% and quantity of ejaculate amounted to 0.2 ml. […] Deep freezing of such minute quantity of ejaculate, however, is for technical reasons not possible. In order to protect the animal and to avoid liver damage, narcosis can be repeated every four days at the most and kept on for 4-5 hours. Collecting of sperms this way is unaccomplishable. In our process the male was separated from the female and was treated daily for 12 days with 10 μg each of D-Phe^6, Gln^8, DesGly^10 -GnRH ethyl-amide which was diluted in 1 ml of normal saline solution and administered intramuscularly, using compressed air injection technique. On the 12th day, through electrical means the animal was ejaculated under narcosis twice with an hour time interval; in this way 1 ml and 0.8 ml of sperms were obtained. The two samples were combined and examined; a density of 4 was established, motility being 70%. Sperm samples were deep frozen and 21 doses suitable for artificial fertilization were prepared.

male orang-utan = experiment: Treating aspermia caused by non-natural keeping in orang-utan; format: in vivo; conditions: 47th day
Text: A 18-year old, male orang-utan of a weight of ca. […] and belonging to Zoo came into captivity in its infancy. Till the treatment it had three owners. […] It has been living in its present location for the past 11 years, it had neither a companion of his own kind nor a mate. […] The Zoo has been contacted that in case the animal is of Bornean Sub-species and fertile, it would be purchased. […] A factor questioning fertility in the case-history was the absence of aggressiveness typical of the male primates and the ceasing of regular masturbation during hospitalization 5-6 years before. Sperm sample was taken from the animal under narcosis, using electrical means. In the ejaculate secretion of the side gonads was exclusively found, in three parts 1--1 droplet, altogether a quantity of 0.1 ml.
Thereafter the animal was treated twice weekly with a dose of 100 μg D-Phe^6, Gln^8, DesGly^10 -GnRH ethylamide, i.e. similarly to the method used in Example 11. During treatment movement of the animal became more live and active. This, however, could not be attributed to the growth of libido, since it could have been caused by the fear from firing airgun injector. Treatment was finished on the 47th day following the first shot and ejaculate was taken twice under renewed narcosis and one hour interval; in this way altogether 3.2 ml of sperms were obtained. Density of sperm was 3, motility 35%. Amount of degenerated sperms reached 20%, practically made up of entirely young development forms (neck and middle part plasma droplets).

female wild cats = experiment: Cancelling seasonal unoestrus in adult wild cat; format: in vivo, Felis silvestris; conditions: after 4 days; i.m. 100 μg then 500 μg two hours later, repeated after 48 hours
Description: 2 female wild cats from Zoo, with an average weight of 6 kg and having under normal conditions a cycle between February and March, were treated with D-Phe^6, Gln^8, desGly^10 -GnRH ethyl-amide. Before treatments began, abdominal cavity was opened under narcosis in order to see the condition of both ovaries. After sewing up the abdomen, animals were treated every second day, four times in total through intramuscular injection of the active ingredient diluted in normal saline solution. A two-hour interal was kept between the first and second injection; the first dose was 100 μg, the second one 500 μg. This was followed after 48 hours by the third dose of 100 μg, then two hours later by the fourth dose of 500 μg. On the 0., 2., 4. and 8th day of the treatment abdomen was opened under narcosis and changes in condition of the ovaries were visually evaluated. After treatment both ovaries were removed, fixed and their hystological evaluation was carried out.
On the 0. day of the treatment on left side ovary of both animals 3-4 supposed secondary follicles and 1 degenerated old corpus luteum, while on the right side ovary 5-6 supposed secondary follicles could be seen. […]

[2] = tested on: intact ovaries in organ culture; experiment: Production of ova in cattle in vitro from ovary organ culture; format: cell-based; conditions: 10^-9 -10^-8 g/ml; spontaneous ovulations and punctured ova
Description: Cattle in slaughter-house was stunned and bled, after which intact ovaries were removed within 30-55 minutes. Then in laboratory conditions they were placed in […]. To this culture liquid D-Phe^6, Gln^8, desGly^10 -GnRH ethyl-amide was given in a concentration of 10^-9 -10^-8 g/ml. Ovary stock took 16 to 43 hours to ovulate in organ culture. Out of the spontaneous ovulations of in vitro ovaries and from ova obtained with puncturing 85% were capable to continue meiosis (reductive cell division) and to be successfully fertilized in vitro by tractable sperms of cattle.

Siberian tiger male = experiment: Treating Siberian tiger infertile owing to degenerated spermatogeny; format: in vivo
Text: A 8-year old Siberian tiger male of 120 kg and belonging to Zoo has lived with its mate for three years. Regular copulations took place on oestrus of the female, but no offspring was produced in any year. The possiblity that the female was at fault had to be excluded because previously she had pregnancy from an other male and the young ones born were reared as well. From the male in question through electrical means ejaculate was obtained under narcosis and it was established that it was very thin, 4-5 degenerate, vibrating sperms could be seen in each field of vision. Forms of degeneration were characteristic of the younger phases of spermiogenesis. Thereafter the animal was treated oncy weekly intramuscularly with a 100 μg dose of D-Phe^6, Trp^7, Leu^8 -GnRH diluted in normal saline solution of 1 ml, using the compressed air injection technique. The male was kept with its mate and they copulated regularly during the treatments. […] Calculating from the time of birth, fertile copulation ensued 40-50 days following the first treatment.

[3] = tested on: ovary of domestic cat kittens; experiment: Stimulating function of ovary in domestic cat (D-Phe6,Trp7,Leu8-GnRH); format: in vivo; conditions: 100 μg i.m. every second day, three times; 45 days old kittens
Description: 5 kittens each weighing 0.3 kg and being 45 days old were treated with D-Phe^6, Trp^7, Leu^8 -GnRH analogue in such a way that prior to treatments the left side ovary was removed under narcosis. Then the […] were treated every second day, three times in all with doses of 100 μg each of the active ingredient diluted in normal saline solution administered intramuscularly. After treatment the remaining right side ovaries were removed, examined visually, then, after fixing, hystological examination was carried out.
Ovaries removed prior to treatment were quite homogeneous, butter-yellow in colour, growing follicle could not be detected in them either visually or hystologically. Following treatment 7-8 corpora haemorrhagica and several (not countable) growing follicles were found.

Q: Which results are given for `CCNC(=O)[C@@H]1CCCN1C(=O)[C@H](CCC(N)=O)NC(=O)[C@H](CC(C)C)NC(=O)[C@@H](Cc1ccccc1)NC(=O)[C@H](Cc1ccc(O)cc1)NC(=O)[C@H](CO)NC(=O)[C@H](Cc1c[nH]c2ccccc12)NC(=O)[C@H](Cc1c[nH]cn1)NC(=O)[C@@H]1CCC(=O)N1` [D-Phe^6, Gln^8, desGly^10 -GnRH ethylamide] ([pGlu]HWSY[dF]LQP-NHEt)?
A: ovulations in each animal (female lambs): 3-9; developed Graf-follicles in each ovary (infant calves; 2 μg three times daily 8 days, 100 μg i.m. on 10th day, 65-day old calves): 5-11; follicles just prior to ovulation (infant calves; same treatment): 50%; motility of ejaculate after deep freeze test ([1]; 4 weeks after first treatment): less than 10%; young sperm formations in ejaculate ([1]; 4 weeks after first treatment, 100 μg i.m.): 40-60%; defective sperms ([1]; 60 days after first treatment): below 30%; sperm motility ([1]; 60 days after first treatment): exceeded 60%; motility after deep-freeze test ([1]; 60 days, ejaculate diluted 1:1): 45%; density of combined sample (Bengalian tiger; 12th day): 4; sperm motility (Bengalian tiger; 12th day, combined sample): 70%; sperm volume obtained per ejaculation (Bengalian tiger; 12th day, 10 μg daily i.m. for 12 days, two ejaculations one hour apart, 0.2 ml before treatment, Gln^8, DesGly^10 -GnRH ethyl-amide): 1 mL and 0.8 mL; motility of remelting sperms (Bengalian tiger; after deep freezing): 60%; doses suitable for artificial fertilization prepared (Bengalian tiger; deep frozen samples): 21; degenerated sperms (male orang-utan): 20%; density of sperm (male orang-utan): 3; sperm motility (male orang-utan): 35%; sperm volume obtained altogether (male orang-utan; 100 μg twice weekly, two ejaculations): 3.2 mL; development of secondary follicles (female wild cats): all secondary follicles turned into Graf-follicles ovulated; ova capable to continue meiosis and to be fertilized in vitro [2]: 85%

Q: With `CC(C)C[C@H](NC(=O)[C@H](Cc1c[nH]c2ccccc12)NC(=O)[C@@H](Cc1ccccc1)NC(=O)[C@H](Cc1ccc(O)cc1)NC(=O)[C@H](CO)NC(=O)[C@H](Cc1c[nH]c2ccccc12)NC(=O)[C@H](Cc1c[nH]cn1)NC(=O)[C@@H]1CCC(=O)N1)C(=O)N1CCC[C@H]1C(=O)NCC(N)=O` [D-Phe^6, Trp^7, Leu^8 -GnRH] ([pGlu]HWSY[dF]WLPG-NH2) as the compound, how does the “pregnancy of mate / offspring” value (Siberian tiger male; 100 μg once weekly i.m.) read?
A: The female became pregnant, producing three healthy offsprings

Q: What about the “time of fertile copulation following the first treatment” value (Siberian tiger male; calculated from time of birth) of the same compound?
A: 40 to 50 days

Q: And the “corpora haemorrhagica on remaining ovary” value [3]?
A: 7-8

— patent US4753928A, “Process for obtaining sexual products from mammals suitable for natural or artificial fertilization” (INNOFINANCE Altalanos Innovacios Pengintezet, priority 1985, dated 1988)
